Values quoted from earlier work as cited in the CATMoS acute toxicity set (Mansouri et al. 2021).
Where “and” joins values, the source holds several entries; their conditions need not be identical. Identical values can stand only once.

Test: rat acute oral toxicity
Details: in vivo

Compound | LD50
CCCC[C@H](C)[C@H](O)C#C[C@H]1CCC(=O)[C@@H]1CC=CCCCC(=O)OC | 338 mg/kg
CC(C)Cc1ccc2ccccc2n1 | 1020 mg/kg
O=C(OCCCl)c1ccccc1C(=O)OCCCl | 730 mg/kg
CC(C1=C(CCN(C)C)Cc2ccccc21)c1ccccn1 (configuration not stated) | 618 mg/kg
CCC1CC2CC3c4[nH]c5ccc(OC)cc5c4CCN(C2)C13 (configuration not stated) | 482 mg/kg
CCS | 682 mg/kg
CCN(CC)CCSSCCN(CC)CC | 340 mg/kg
O=C1c2ccccc2C(=O)C1c1ccc(C(F)(F)F)cc1 | 198 mg/kg
CCCN(CCC)CCCCCCCCNC(=O)Oc1ccc2c(c1)[C@]1(C)CCN(C)[C@@H]1N2C | 18.3 mg/kg
O=C(O)c1nn(Cc2ccc(Cl)cc2)c2ccccc12 | 1140 mg/kg
CCOC(=S)C=Cc1ccc2c(c1)OCO2 | 940 mg/kg
O=C(OC1CC2CCC(C1)[N+]21CCCC1)C(O)(c1ccccc1)c1ccccc1 (configuration not stated) | 1500 mg/kg
CON=Cc1ccc(OCC(O)(Cn2cncn2)C(C)(C)C)cc1 (configuration not stated) | 921 mg/kg
COP(=S)(OC)Oc1ccc(C#N)cc1C | 500 mg/kg
CCOCC(Cl)C(OCC)OCC (configuration not stated) | 1320 mg/kg
O=C1O[C@@H]2[C@@H](O)[C@H](O)O[C@@H]2[C@H]1O | 10700 mg/kg
CC1(C)OCC(COC(=O)Cc2ccc3c(c2)OCc2ccccc2C3=O)O1 (configuration not stated) | 92 mg/kg
CCC(=O)C1(c2cccc(O)c2)CCN(C)CC1 | 215 mg/kg
O=C1NS(=O)(=O)c2ccccc21 | 14200 mg/kg
C=CC=CC=CCCCCC | 7560 mg/kg
C=C(C)Cn1c(N)cc(=O)n(C)c1=O | 1560 mg/kg
CCOC(=O)C(C#N)C(=O)Cc1c(C)n(C(=O)c2ccc(Cl)cc2)c2ccc(OC)cc12 (configuration not stated) | 82 mg/kg
C=C1CC(C)C2C3Cc4ccc(O)cc4C2(CCN3CC2CCC2)C1 (configuration not stated) | 750 mg/kg
CCOP(=O)(OCC)SCS(=O)CC (configuration not stated) | 1 mg/kg

Compound | LD50
CCCSP(=O)(OCC)Oc1cnn(-c2ccc(Cl)cc2)c1 (configuration not stated) | 237 mg/kg
CC(C(=O)O)c1ccc(Oc2nccs2)cc1 (configuration not stated) | 135 mg/kg
CCCCc1ccc(O)c(C(=O)Nc2cccc(C(F)(F)F)c2)c1 | 2500 mg/kg
C=Cc1ccc(OC(C)=O)cc1 | 1500 mg/kg
O=C(Nc1nc2ccc([N+](=O)[O-])cc2s1)c1ccc([N+](=O)[O-])cc1 | 1500 mg/kg
O=C(O)Cc1c(-c2ccccc2)c(-c2ccccc2)nn1-c1ccccc1 | 13 mg/kg
CCCCN(CCCC)CCCC | 114 mg/kg
O=C(O)Cc1ccc2c(c1)OCc1ccccc1C2=O | 110 mg/kg
CCOP(=S)(OCC)SCn1nc(Cl)c(Cl)cc1=O | 1880 mg/kg
CCCOCCOC(=O)C1=C(C)NC(C)=C(C(=O)OCCOCCC)C1c1cccc([N+](=O)[O-])c1 | 1470 mg/kg
O=C(O)Cc1cc(O)ccc1Nc1c(Cl)cc(O)cc1Cl | 1000 mg/kg
N=C1C=C(Br)C(=O)c2c(N)cc(Br)c(O)c21 | 2400 mg/kg
CC(C)CCP(=O)(CCC(C)C)CCC(C)C | 2240 mg/kg
O=c1[nH]c2ccc(Cl)cc2o1 | 1200 mg/kg
COc1ccc2c(c1)c(CC(=O)Oc1cccc(C)c1)c(C)n2C(=O)c1ccc(Cl)cc1 | 98 mg/kg
C#CCN(C)c1ccccc1OC(=O)NC | 60 mg/kg
CCc1ccc(OCC=C(C)CCC=C(C)C)cn1 | 800 mg/kg
FC1(F)CC(C2CC3(Cl)C(Cl)=C(Cl)C2(Cl)C3(Cl)Cl)C1(F)F (configuration not stated) | 550 mg/kg
COc1cc(C(=O)Oc2c(CCC(C)=O)c(=O)n(-c3ccccc3)n2-c2ccccc2)cc(OC)c1OC | 3000 mg/kg
CN1C(C(=O)Nc2nccs2)=C(O)c2ccccc2S1(=O)=O | 136 mg/kg
CCC(C)c1ccccc1OC(=O)NC (configuration not stated) | 350 mg/kg
Cc1cc(CC(C)CC(C)(C)C)oc(=O)c1 (configuration not stated) | 1480 mg/kg
Cc1ncc(CO)c(CO)c1O | 4000 mg/kg
NCC(CC(=O)O)c1ccc(Cl)cc1 (configuration not stated) | 145 mg/kg

Compound | LD50
COP(=O)(OC)Sc1ccc(Cl)cc1 | 100 mg/kg
COP(=O)(OC)OC(=CBr)c1ccc(Cl)cc1Cl | 225 mg/kg
O=C1C=CC(=O)N1c1c(F)c(F)c(F)c(N2C(=O)C=CC2=O)c1F | 2100 mg/kg
Nc1ccc(Cl)c([N+](=O)[O-])c1 | 400 mg/kg
Oc1c(Cl)cc(Cl)c(Cl)c1Cl | 140 mg/kg
CCCCCCCCCCCC[N+](C)(C)Cc1ccc(Cl)c(Cl)c1 | 730 mg/kg
CC(C)=NNC(=O)CSc1cc(Oc2ccc(F)cc2)ncn1 | 380 mg/kg
NC1CCCC(N)C1 (configuration not stated) | 390 mg/kg
CN1CCC(=C2c3ccccc3C(O)c3ccccc32)CC1 (configuration not stated) | 135 mg/kg
CCN(CC)S(=O)(=O)c1c(Cl)c(Cl)c(Cl)c2[nH]c(C(F)(F)F)nc12 | 11.2 mg/kg
CCc1c(C)nc2ccc(Cl)cn2c1=O | 1100 mg/kg
O=c1ccc2cc3ccoc3c(O)c2o1 | 480 mg/kg
C=CCC1=C(C)C(OC(=O)C2C(C)(C)C2(C)C)CC1=O (configuration not stated) | 174 mg/kg
C=CN(CC)N=O | 88 mg/kg
CN(C)c1ncnc2c1ncn2CC1CC1 | 570 mg/kg
COc1cc(NC(=O)OCCCN2CCN(c3ccccc3)CC2)cc(OC)c1OC | 900 mg/kg
CN1C(C(=O)Nc2ccccn2)C(=O)c2sc(Cl)cc2S1(=O)=O (configuration not stated) | 5.73 mg/kg
O=C(O)C(F)(F)C(F)(F)C(F)(F)C(F)(F)C(F)(F)C(F)(F)C(F)(F)C(F)(F)C(F)(F)F | 57 mg/kg
Cc1cn[nH]c1 | 534 mg/kg
NN1C(=O)CC(c2cccc(Br)c2)C1=O (configuration not stated) | 1600 mg/kg
Clc1ccc(OCOc2ccc(Cl)cc2)cc1 | 5800 mg/kg
COP(=S)(NC(C)C)Oc1ccc(C)cc1[N+](=O)[O-] (configuration not stated) | 309 mg/kg
Clc1cc(Cl)c(-c2c(Cl)c(Cl)c(-c3c(Cl)cc(Cl)c(Cl)c3Cl)c(Cl)c2Cl)cc1Cl | 16000 mg/kg
CCCCOP(=O)(OCCO)OCCCC | 915 mg/kg

Compound | LD50
O=C(OCC(O)CO)c1ccccc1Nc1ccnc2c(C(F)(F)F)cccc12 (configuration not stated) | 535 mg/kg
O=S(=O)(c1cccc2cnccc12)N1CCCNCC1 | 335 mg/kg
Cc1cc(Cl)ccc1Cn1nc(C(=O)O)c2ccccc21 | 4000 mg/kg
FC(F)(F)c1ccccc1 | 15000 mg/kg
CCc1nc(N)nc(N)c1-c1ccc(Cl)cc1 | 440 mg/kg
CCCCCCCCCCCC(=O)NP(=O)(OC)SC (configuration not stated) | 100 mg/kg
Cc1ncc(C[n+]2csc(CCO)c2C)c(N)n1 | 3710 mg/kg
OC(c1ccccc1)(c1ccc(Cl)cc1)C1CCCCN1 (configuration not stated) | 400 mg/kg
Cc1ccc2c(c1)c(-c1ccccc1)cn2N(CCN(C)C)CCN(C)C | 980 mg/kg
O=[N+]([O-])c1c(Cl)c([N+](=O)[O-])c2[nH]c(C(F)(F)F)nc2c1Cl | 117 mg/kg
CCCCCCCCOC(C)=O | 3000 mg/kg
CCCCCNCCCCC | 270 mg/kg
O=C1C=CC(=O)N1c1cccc(N2C(=O)C=CC2=O)c1 | 1370 mg/kg
CCC(C)(C)c1ccc2c(c1)C(=O)c1ccccc1C2=O | 1600 mg/kg
COC1CC=C2CCN3CCC4=C(CC(=O)OC4)C23C1 (configuration not stated) | 320 mg/kg
NC1=NCC2c3ccccc3Cc3ccccc3N12 (configuration not stated) | 192 mg/kg
CN(C)CN(C)C | 1770 mg/kg
CC(=O)OCCC(C)CCC=C(C)C (configuration not stated) | 6800 mg/kg
NCc1cccc(CN)c1 | 930 mg/kg
CCOC(=O)Nc1cccc(OC(=O)Nc2ccccc2)c1 | 9600 mg/kg
CS(=O)(=O)c1ccccc1 | 1470 mg/kg
COc1ccc2[nH]c(S(=O)Cc3ncc(C)c(OC)c3C)nc2c1 (configuration not stated) | 2210 mg/kg
COCc1c(CO)cnc(C)c1O | 2150 mg/kg
NC[C@H]1CC[C@H](C(=O)Oc2ccc(CCC(=O)O)cc2)CC1 | 1500 mg/kg

Compound | LD50
Cc1ccc(CCOC(=O)c2cccnc2)cc1 | 3500 mg/kg
CCOC(=S)SSC(=S)OCC | 480 mg/kg
O=CC1CCC=CO1 (configuration not stated) | 4920 mg/kg
CC(Cl)(Cl)[N+](=O)[O-] | 410 mg/kg
CC1CN(C2CCCCCCCCCCC2)CC(C)O1 (configuration not stated) | 2640 mg/kg and 2500 mg/kg
COc1cc2c(cc1OC)C1Cc3ccc(OC)c(OC)c3CN1CC2 (configuration not stated) | 580 mg/kg
NCCCC1(CCCN)c2ccccc2-c2ccccc21 | 620 mg/kg
OC[P+](CO)(CO)CO | 232 mg/kg
CCc1cc(=O)c2ccccc2o1 | 1400 mg/kg
CC(C(=O)O)c1ccc(N2CC=CC2)c(Cl)c1 (configuration not stated) | 351 mg/kg
CN(CCO)c1nc(Nc2ccccc2)nc(Nc2ccc(/C=C/c3ccc(Nc4nc(Nc5ccccc5)nc(N(C)CCO)n4)cc3S(=O)(=O)O)c(S(=O)(=O)O)c2)n1 | 6890 mg/kg
c1ccc2[nH]c(-c3cscn3)nc2c1 | 3600 mg/kg and 3100 mg/kg
Cc1cc(Cl)ccc1OC(C)C(=O)N(C)C (configuration not stated) | 800 mg/kg
CCCCC(C)(C)[C@H](O)C=C[C@H]1[C@H](C)CC(=O)[C@@H]1CC=CCCCC(=O)O | 22 mg/kg
C=CCc1ccc2c(c1)OCO2 | 1950 mg/kg
CN1CCCCC1CCN1c2ccccc2Sc2ccc(Br)cc21 (configuration not stated) | 900 mg/kg
C=CCOP(OCC=C)OCC=C | 178 mg/kg
CC(=O)C=Cc1ccccc1 | 2030 mg/kg
O=C1c2cccc(Br)c2C(=O)C1c1ccccc1 (configuration not stated) | 745 mg/kg
c1coc(OCC2CO2)c1 (configuration not stated) | 1100 mg/kg
CCCCS | 1500 mg/kg
CCCSc1cc(Oc2ccc([N+](=O)[O-])cc2)ccc1Cl | 1130 mg/kg
CCN(CC)C(=O)c1cc(=O)c2ccccc2o1 | 4000 mg/kg
CC(C)NCC(O)COc1ccc(CCOCC2CC2)cc1 (configuration not stated) | 998 mg/kg

Compound | LD50
ClC1=C(Cl)C2(Cl)C3CCCCC3C1(Cl)C2(Cl)Cl (configuration not stated) | 100 mg/kg
Oc1c(Cl)cc(Cl)cc1Sc1cc(Cl)cc(Cl)c1O | 492 mg/kg
Cc1c(Nc2ccccc2C(=O)O)ccc(O)c1Cl | 1850 mg/kg
O=c1[nH]c2ccccc2c(=O)n1CCCN1CCN(c2cccc(Cl)c2)CC1 | 7650 mg/kg
COC(=O)N/N=C/c1c[n+]([O-])c2ccccc2[n+]1[O-] | 850 mg/kg
O=C(O)CCCCCCI | 2240 mg/kg
CCCN1CCCC1=Nc1ccc(Cl)c(Cl)c1 | 2120 mg/kg
CCCCCCCCCCOc1c(OC)cc(C(N)=O)cc1OC | 1650 mg/kg
C[C@H](NCCc1ccc(O)cc1)[C@H](O)c1ccc(O)cc1 | 1840 mg/kg
CCOP(=O)(OCC)SCN1C(=O)c2ccccc2C1=O | 11 mg/kg
CN(C)c1ccc(Cn2cnc3c2c(=O)n(C)c(=O)n3C)cc1 | 1100 mg/kg
CCCCCCCCCCCC[N+](C)(C)CC(O)CCl (configuration not stated) | 1070 mg/kg
COc1ccc2c(c1)c(CC(=O)O)c(C)n2C(=O)/C=C/c1ccccc1 | 900 mg/kg
COc1ccccc1C=O | 2500 mg/kg
CC(Cl)(C=O)CCl (configuration not stated) | 1620 mg/kg
CCOCC(C)O (configuration not stated) | 4400 mg/kg
Cc1ccc2[nH]nnc2c1 | 1600 mg/kg
CNC(=S)NCCSCc1nc[nH]c1C | 1490 mg/kg
NCCC=C1c2ccccc2COc2ccccc21 | 960 mg/kg
CCCCc1c(C)nc(NCC)nc1OS(=O)(=O)N(C)C | 4000 mg/kg
CCCCCCCCCc1ccc(O)cc1 | 1620 mg/kg
CN(C)C(=O)Oc1ccccc1C1SCCS1 | 16 mg/kg
